Measurements reported in PubChem BioAssay (NCI).
“And” between values parts separate entries of the source, which are not always exact repeats. Equal values may be shown once.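 1) Cells in 96-well plates. 2) Compound, 48 h, 5 concentrations. 3) Linear interpolation between surrounding doses. 4) Unreached endpoint = highest concentration. GI50 marks 50% less growth. At the TGI there is no net growth.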

Key:
Test in all cases: NCI anticancer screen, dose series, 48 h
A549 NSCLC = system: A549 NSCLC
COLO 205 colon = system: COLO 205 colon
HCT-15 colon = system: HCT-15 colon
HL-60(TB) leukemia = system: HL-60(TB) leukemia
HT29 colon = system: HT29 colon
IGROV1 ovarian = system: IGROV1 ovarian
M19-MEL melanoma = system: M19-MEL melanoma
OVCAR-3 ovarian = system: OVCAR-3 ovarian
OVCAR-4 ovarian = system: OVCAR-4 ovarian
SR leukemia = system: SR leukemia

Row | SMILES | TGI (A549 NSCLC) | TGI (COLO 205 colon) | TGI (HCT-15 colon) | TGI (HL-60(TB) leukemia) | TGI (HT29 colon) | TGI (IGROV1 ovarian) | TGI (M19-MEL melanoma) | TGI (OVCAR-3 ovarian) | TGI (OVCAR-4 ovarian) | TGI (SR leukemia) | GI50 (A549 NSCLC) | GI50 (COLO 205 colon) | GI50 (HCT-15 colon) | GI50 (HL-60(TB) leukemia) | GI50 (HT29 colon) | GI50 (IGROV1 ovarian) | GI50 (OVCAR-3 ovarian) | GI50 (OVCAR-4 ovarian) | GI50 (SR leukemia)
1 | COc1cc(CNc2nc3ccc(C(F)(F)F)cc3nc2-c2ccccc2)cc(OC)c1OC | > 100 µM | > 100 µM | > 100 µM | 55.9 µM | > 100 µM | > 100 µM | > 100 µM | > 100 µM | > 100 µM |  |  |  |  |  |  |  |  |  | 
2 | O=C(Cl)C1=C(c2ccccc2)C1c1ccccc1 (stereo not given) | > 100 µM | > 100 µM | > 100 µM | > 100 µM | > 100 µM | > 100 µM |  | > 100 µM | > 100 µM | > 100 µM |  |  |  |  |  |  |  |  | 
3 | Clc1ccc2c(c1)N(c1ncnc3ccc(-c4cnc5[nH]ncc5c4)cc13)CC2 | > 100 µM | > 100 µM | > 100 µM | > 100 µM | > 100 µM | 0.554 µM |  | > 100 µM | > 100 µM | > 100 µM | 0.33 µM | 0.695 µM | 0.392 µM | 0.411 µM | 0.344 µM | 0.11 µM | 0.471 µM | 0.747 µM | 0.722 µM
4 | CCOc1ccc(Nc2c3ccccc3nc3ccccc23)cc1 | 9.63 µM and 12.5 µM | 1.39 µM and 1.33 µM | 3.18 µM | 5.15 µM and 2.54 µM | 1.26 µM and 1.08 µM | 14.9 µM and 13.4 µM |  | 1.17 µM and 1.03 µM | 7.36 µM and 10.8 µM | 6.89 µM and 1.11 µM | 0.734 µM and 0.887 µM | 0.313 µM and 0.307 µM | 0.592 µM and 0.552 µM | 1.58 µM and 0.545 µM | 0.307 µM and 0.264 µM | 0.758 µM and 0.32 µM | 0.313 µM and 0.264 µM | 0.748 µM and 1.35 µM | 0.307 µM and 0.042 µM
5 | Fc1ccc2nc(-c3cc(-c4ccc5c(c4)OCO5)n[nH]3)[nH]c2c1 | 13.8 µM | > 66.1 µM | > 42.4 µM | 55.5 µM | > 37.8 µM | > 100 µM |  | 18.3 µM | 4.8 µM | > 100 µM | 2.51 µM | 9.22 µM | 3.27 µM | 3.09 µM | 5.06 µM | 3.79 µM | 3.29 µM | 1.37 µM | 3.58 µM
6 | CC1c2ccccc2N=C2SC(=S)N3CCN=C3N21 (stereo not given) | > 100 µM | > 100 µM | > 100 µM | > 100 µM | > 100 µM | > 100 µM |  | > 100 µM | > 100 µM | > 100 µM | > 100 µM | > 100 µM | > 100 µM | > 100 µM | > 100 µM | > 100 µM | > 100 µM | > 100 µM | > 100 µM
7 | O=C1c2ccccc2-c2c1c1c(NCCCO)nc3ccccc3c1n2Cc1ccccc1 | 75.5 µM | > 100 µM | > 100 µM | 25.7 µM | 30.8 µM | > 100 µM |  | 45.9 µM | 57 µM | 24.1 µM | 29.7 µM | 34.2 µM | 37.5 µM | 12 µM | 17.1 µM | 48.6 µM | 19.8 µM | 23 µM | 6.04 µM
8 | CCOC(=O)C1(Cc2ccc3ccccc3c2)CCCCC(=O)N1 (stereo not given) | > 100 µM | > 100 µM | > 100 µM | 30.3 µM | > 100 µM | > 100 µM | > 100 µM | 92.5 µM | > 100 µM |  |  |  |  |  |  |  |  |  | 
9 | CC1=NN(C(=O)c2ccncc2)C(=O)C1N=Nc1ccc(F)cc1 (stereo not given) | > 100 µM | > 100 µM | > 100 µM | > 100 µM | > 100 µM | > 100 µM | > 100 µM | > 100 µM | > 100 µM |  |  |  |  |  |  |  |  |  | 
10 | OCc1ccc(N2CCOCC2)cc1Cl | > 100 µM | > 68.1 µM | > 100 µM | > 100 µM | > 100 µM | 32.6 µM |  | > 92 µM | > 100 µM | > 100 µM | > 100 µM | 25 µM | > 100 µM | > 100 µM | > 81.8 µM | 6.73 µM | 35.2 µM | 55.6 µM | > 100 µM
11 | CC(C)Oc1ccc(C(=O)Cn2ccnc2)cc1-n1c(CN2CCN(C(=O)COc3ccc(Cl)cc3)CC2)nc2ccccc2c1=O | > 72.1 µM | 32.7 µM | 32.6 µM | 27.7 µM | 44.9 µM | 16.5 µM |  | 13.2 µM | > 64.8 µM | 36.8 µM | 18.4 µM | 7.34 µM | 12.3 µM | 2.3 µM | 14.8 µM | 1 µM | 2.18 µM | 3.6 µM | 5.64 µM
12 | C/C1=C\CC[C@@](C)(O)[C@@H]2C[C@H](CC/C(C)=C/CC1)C1(CC1)C(=O)O2 | > 100 µM | 36.4 µM | > 100 µM | 33.4 µM | > 100 µM | > 100 µM |  | 47.4 µM | > 100 µM | 76.9 µM | 42.8 µM | 15.6 µM | 30.2 µM | 15.4 µM | 31.4 µM | 28.1 µM | 22 µM | 26.3 µM | 28 µM
13 | Nc1cc(-c2ccc(Cl)cc2)nn1-c1nnc(/C=C/c2ccco2)c(=O)[nH]1 | 22.2 µM | > 42.9 µM | > 49.1 µM | > 28.6 µM | > 100 µM | 37.8 µM |  | 8.45 µM | 13.4 µM | > 100 µM | 3.46 µM | 3.64 µM | 1.38 µM | 4.23 µM | 6.61 µM | 4.89 µM | 2.16 µM | 2.64 µM | 2.53 µM
14 | CCn1c(-c2nonc2N)nc2ccncc21 | > 25 µM | > 25 µM | > 25 µM | > 25 µM | > 25 µM | > 25 µM |  | > 25 µM | > 25 µM | > 25 µM | > 25 µM | > 25 µM | > 25 µM | > 25 µM | > 25 µM | > 25 µM | > 25 µM | > 25 µM | > 25 µM
15 | CC1OC(c2ccc3c(c2O)C(=O)C2=C(C3=O)C3(O)C(=O)CC(C)(O)CC3(O)C=C2)CC(O)C1O (stereo not given) | > 73.5 µM | 3.39 µM | 29.7 µM | 4.07 µM | 19.6 µM | 27.9 µM |  | 15.8 µM | 27.2 µM | 33.5 µM |  |  |  |  |  |  |  |  | 
